System: vascular smooth muscle cell (SMC)
Assay: Effect on proliferation of vascular smooth muscle cell (SMC), XTT assay
Type: cell-based
Settings: 1 uM; XTT absorbance at 450 nm at 1, 4 and 7 days; versus untreated control (FIG. 1)
Description: As cells used in a cell culture, the vascular smooth muscle cell (SMC) which is a smooth muscle cell, and the human umbilical vein endothelial cell (HUVEC) which is the cell for promoting vascular re-endothelialization were purchased from Korea Cell Line Bank, respectively. The cell culture was performed by culturing the vascular smooth muscle cell (SMC) and the human umbilical vein endothelial cell (HUVEC) in Dulbecoco's modified eagle medium (DMEM) with 10% fetal bovine serum (FBS) under conditions of 37° C. and 5% CO2. […]
(§1) 5×10^4 of SMC cells cultured according to Example 2 were cultured in the 24-well cell culture plate and then treated with 1 uM of the peptide compound prepared by Example 2 (hereinafter, referred to as ‘EVR-P’). […] After the reaction, 200 ul of the culture medium was transferred from each well to a 96 well cell culture dish, and degree of color change was measured from absorbance at a 450 nm wavelength by a spectroscopy.
as §1, with “the known Everolimus (EVR)(LC Laboratories).” for “the peptide compound prepared by Example 2 (hereinafter, referred to as ‘EVR-P’).”, “to the” for “to a”

SMILES: CO[C@H]1C[C@@H]2CC[C@@H](C)[C@@](O)(O2)C(=O)C(=O)N2CCCC[C@H]2C(=O)O[C@H]([C@H](C)C[C@@H]2CC[C@@H](OCCO)[C@H](OC)C2)CC(=O)[C@H](C)/C=C(\C)[C@@H](O)[C@@H](OC)C(=O)[C@H](C)C[C@H](C)/C=C/C=C/C=C/1C [EVR, Everolimus]
- SMC cell proliferation: cell proliferation was inhibited

From patent US20160229893A1, “Novel Peptide Compound for Inhibiting Restenosis and Promoting Re-Endothelialization and Method for Preparing the Same” (Chonnam National University Hospital, priority 2014, published 2016)
